{"source": "patent US20070015174A1", "about": "“High throughput formulation screening of drug candidates” (priority 2005, published 2007)", "key": {"[1]": {"settings": "cited from earlier work"}, "[2]": {"test": "High throughput formulation screening: solubility of compound in 96 formulations (5 μL scale, image capture)", "assay_type": "physicochemical", "settings": "for solubility: thermodynamic from solid", "method": "The solubility of the compound in the various excipients is then evaluated by comparing the captured images (e.g., first, second, third, and fourth images). […] All stock solutions were prepared with ultrapure ASTM Type I water and sterile-filtered using a 0.22 micron filter. The solutions were then attached to the MATRIX MAKER liquid-handling robot for sterile path, positive pressure dispensation into an SBS (Society for Biomolecular Screening) standard-sized 96 deep well plates. The screening formulations are defined in the CRYSTAL MINER software, which drives the MATRIX MAKER and allows for the rapid development of refinement screens for the optimization of lead hits. Once the formulations have been dispensed, the plate is sealed and centrifuged at 2000 rpm to ensure that each well contains a homogeneous solution. […] The DROP MAKER micro-scale liquid handler then dispenses 5 μL of the compound solution into a 96-well SBS format plate. […] Images were then captured of each well by the CRYSTAL MONITOR workstation (Session 1). Then 5 μL of each formulation screening solution were added to separate wells and images were captured for each well (Session 2) as above. Following image capture, the plate was heated to 45° C. for 30 minutes, then agitated for 10 minutes at room temperature during cool down. Additional images are captured on day one (t=1, Session 3) and day three (t=3, Session 4). Images and data annotation are exported to Excel for final report generation. The solubility of triclocarban in the formulations screening set (96 conditions) was obtained after the high throughput screening at target solubility of 10 mg/mL by the method described above: […]"}}, "note": "Read-outs that look alike come from different tables or passages of the source."}
{"smiles": "O=C(Nc1ccc(Cl)cc1)Nc1ccc(Cl)c(Cl)c1", "note": "[TCC, 3,4,4′-trichlorocarbanilide]", "values": [{"measurement": "solubility", "setting": "[1]; 20% RMbCD with additives", "result": "about 5 mg/mL"}, {"measurement": "solubility in organic solvents", "setting": "[1]; acetone", "result": "soluble"}, {"measurement": "solubility in organic solvents", "setting": "[1]; propylene glycol", "result": "to some extent"}, {"measurement": "intrinsic solubility (S0)", "setting": "[1]; pure water, room temperature", "result": "less than 50 ng/ml"}, {"measurement": "solubility in water", "setting": "[1]; water", "result": "water-insoluble"}, {"measurement": "solubility in formulation", "setting": "[2]; 10 mg/mL, IV dosing solution PEG 300/polysorbate 80/EtOH/SGF (40/5/5/50)", "result": "nearly completely dissolved"}, {"measurement": "solubility in formulation", "setting": "[2]; 10 mg/mL, IV dosing solution PEG 300/polysorbate 80/SGF (45/5/50)", "result": "nearly completely dissolved"}, {"measurement": "solubility in formulation", "setting": "[2]; 10 mg/mL, NMP/polysorbate 80 (9/1)", "result": "easily dissolved"}, {"measurement": "solubility in formulation", "setting": "[2]; 10 mg/mL, PEG 300/polysorbate 80 (9/1)", "result": "easily dissolved"}, {"measurement": "solubility in formulation", "setting": "[2]; 10 mg/mL, PEG 400/polysorbate 80/EtOH (8/1/1)", "result": "easily dissolved"}, {"measurement": "solubility in formulation", "setting": "[2]; 10 mg/mL, PEG 400/polysorbate (3/1)", "result": "easily dissolved"}, {"measurement": "solubility in formulation", "setting": "[2]; 10 mg/mL, SEDDS carpryol 90/PEG 400/cremophor EL (4/3/3)", "result": "dissolved"}, {"measurement": "solubility in formulation", "setting": "[2]; 10 mg/mL, SEDDS labrafac CC/imwitor 988/cremophor (25/27/48)", "result": "dissolved"}, {"measurement": "solubility in formulation", "setting": "[2]; 10 mg/mL, SEDDS sesame oil/maisine 35-1/polysorbate 80 (25/27/48)", "result": "dissolved"}, {"measurement": "solubility in formulation", "setting": "[2]; 10 mg/mL, SEDDS soybean oil/maisine 35-1/polysorbate 80/EtOH (35/20/35/10)", "result": "dissolved"}, {"measurement": "solubility in formulation", "setting": "[2]; 10 mg/mL, cosolvent PEG 400/EtOH (7/3)", "result": "easily dissolved"}, {"measurement": "solubility in formulation", "setting": "[2]; 10 mg/mL, cosolvent PEG 400/EtOH/PG (4/1/5)", "result": "easily dissolved"}, {"measurement": "solubility", "setting": "[2]; Carpryol 90 (formulation screening solution), oil or lipid, target 10 mg/mL, Carpryol 90", "result": "~10000", "unit": "µg/mL"}, {"measurement": "solubility", "setting": "[2]; Cremophor EL (formulation screening solution), aqueous with cosolvent or surfactant or cyclodextrin, target 10 mg/mL, Cremophor EL", "result": "~10000", "unit": "µg/mL"}, {"measurement": "solubility", "setting": "[2]; Labrafil M 1944 CS (formulation screening solution), oil or lipid, target 10 mg/mL, Labrafil M 1944 CS", "result": "~10000", "unit": "µg/mL"}, {"measurement": "solubility", "setting": "[2]; Labrasol (formulation screening solution), aqueous with cosolvent or surfactant or cyclodextrin, target 10 mg/mL, Labrasol", "result": "~10000", "unit": "µg/mL"}, {"measurement": "solubility", "setting": "[2]; N-methyl-2-pyrrolidinone (formulation screening solution), organic solvent or mixture, target 10 mg/mL, N-methyl-2-pyrrolidinone", "result": "~10000", "unit": "µg/mL"}, {"measurement": "solubility", "setting": "[2]; Softigen 767 (formulation screening solution), aqueous with cosolvent or surfactant or cyclodextrin, target 10 mg/mL, Softigen 767", "result": "~10000", "unit": "µg/mL"}, {"measurement": "solubility", "setting": "[2]; lauroglycol FCC (formulation screening solution), oil or lipid, target 10 mg/mL, lauroglycol FCC", "result": "~10000", "unit": "µg/mL"}, {"measurement": "solubility", "setting": "[2]; peppermint oil (formulation screening solution), oil or lipid, target 10 mg/mL, peppermint oil", "result": "~10000", "unit": "µg/mL"}, {"measurement": "solubility in formulation", "setting": "[2]; target 10 mg/mL, 20% TPGS", "result": "partially dissolved"}, {"measurement": "solubility in formulation", "setting": "[2]; target 10 mg/mL, 20% povidone", "result": "neither glycerine, safflower oil, sesame oil, nor 20% povidone had any effect"}, {"measurement": "solubility in formulation", "setting": "[2]; target 10 mg/mL, Capmul MCM C8", "result": "dissolve TCC completely"}, {"measurement": "solubility in formulation", "setting": "[2]; target 10 mg/mL, HPbCD", "result": "partially dissolved"}, {"measurement": "solubility in formulation", "setting": "[2]; target 10 mg/mL, Imwitor 988", "result": "dissolve TCC completely"}, {"measurement": "solubility in formulation", "setting": "[2]; target 10 mg/mL, PEG 300", "result": "dissolve TCC completely"}, {"measurement": "solubility in formulation", "setting": "[2]; target 10 mg/mL, PEG 400", "result": "dissolve TCC completely"}, {"measurement": "solubility in formulation", "setting": "[2]; target 10 mg/mL, Polysorbate 80", "result": "dissolve TCC completely"}, {"measurement": "solubility in formulation", "setting": "[2]; target 10 mg/mL, RMbCD", "result": "partially dissolved"}, {"measurement": "solubility in formulation", "setting": "[2]; target 10 mg/mL, adjustment of pH to between 2 and 10", "result": "no effect"}, {"measurement": "solubility in formulation", "setting": "[2]; target 10 mg/mL, corn oil", "result": "partially dissolved"}, {"measurement": "solubility in formulation", "setting": "[2]; target 10 mg/mL, dimethylacetamide", "result": "dissolve TCC completely"}, {"measurement": "solubility in formulation", "setting": "[2]; target 10 mg/mL, glycerine", "result": "neither glycerine, safflower oil, sesame oil, nor 20% povidone had any effect"}, {"measurement": "solubility in formulation", "setting": "[2]; target 10 mg/mL, imwitor 380", "result": "partially dissolved"}, {"measurement": "solubility in formulation", "setting": "[2]; target 10 mg/mL, labrafac CC", "result": "partially dissolved"}, {"measurement": "solubility in formulation", "setting": "[2]; target 10 mg/mL, maisine 35-1", "result": "partially dissolved"}, {"measurement": "solubility in formulation", "setting": "[2]; target 10 mg/mL, neobee M-5", "result": "partially dissolved"}, {"measurement": "solubility in formulation", "setting": "[2]; target 10 mg/mL, oleic acid", "result": "partially dissolved"}, {"measurement": "solubility in formulation", "setting": "[2]; target 10 mg/mL, safflower oil", "result": "neither glycerine, safflower oil, sesame oil, nor 20% povidone had any effect"}, {"measurement": "solubility in formulation", "setting": "[2]; target 10 mg/mL, sesame oil", "result": "neither glycerine, safflower oil, sesame oil, nor 20% povidone had any effect"}, {"measurement": "solubility in formulation", "setting": "[2]; target 10 mg/mL, soybean oil", "result": "partially dissolved"}]}
